This passage reports IC50 results from US6723726B1 (SmithKline Beecham Corporation, priority 1996, dated 2004).

Test [1] has as its target T1, c-erbB-4 (baculovirus expressed recombinant intracellular domain) (Homo sapiens, UniProt Q15303).
T1 construct: baculovirus expressed, recombinant constructs of the intracellular domains of c-erbB-2 and c-erbB-4 that are constitutively active; made in house
In words: Substrate phosphorylation assay, c-erbB-4. The test is classed as biochemical. As to conditions: ATP and peptide at Km, 30 min, room temperature. Here is the method:
(§1) The substrate phosphorylation assays use baculovirus expressed, recombinant constructs of the intracellular domains of c-erbB-2 and c-erbB-4 that are constitutively active and EGFr isolated from solubilised A431 cell membranes. The method measures the ability of the isolated enzymes to catalyse the transfer of the γ-phosphate from ATP onto tyrosine residues in a biotinylated synthetic peptide (Biotin-[…]. […] The reaction is stopped by the addition of EDTA (final concentration 0.15 mM) and a sample is transferred to a streptavidin-coated 96-well plate. The plate is washed and level of phosphotyrosine on the peptide is determined using a Europium-labelled antiphosphotyrosine antibody and quantified with a time-resolved fluorescence technique.

The target in test [2] is T2, EGFr isolated from solubilised A431 cell membranes (Homo sapiens, UniProt P00533).
T2 construct: EGFr isolated from solubilised A431 cell membranes; endogenous in cells; host or cells: A431 cell membranes (solubilised)
The experiment in a line: Substrate phosphorylation assay, EGFr. The test is classed as biochemical. As to conditions: ATP and peptide at Km, 30 min, room temperature. Here is the method: as §1

For a further test, the system named is HN5 cells. The experiment in a line: Cell proliferation assay, HN5 head and neck tumour cell line. As to conditions: Homo sapiens, HN5, 96 h; 4 days, methylene blue staining; read-out: Cell Proliferation HN5 IC50. The test is classed as cell-based. As to the method:
(§2) The cell proliferation assay uses an immortalised human breast epithelial cell line (HB4a) which has been transformed by over-expression of c-erbB-2. Growth of these cells in low serum is dependent upon the c-erbB-2 tyrosine kinase activity. The specificity of the effect of the test compounds on tyrosine kinase dependent growth over general toxicity is assessed by comparison to an HB4a cell line which has been transfected with ras. Cells are plated at 3000/well in 96-well plates in 0.1 ml medium and allowed to attach overnight, test compound is added in 0.1 ml medium, with a final concentration of 0.5% DMSO, and the plates incubated for 4 days at 37° C. The cells are then examined microscopically for evidence of morphological detransformation and cell mass is estimated by staining with methylene blue and measuring the absorbance at 620 nm. The results are shown in Table 1 below as the IC50 values in nM. Activity against a range of naturally occurring EGFr or c-erbB-2 over-expressing human tumour cell lines (BT474-breast, HN5-head and neck, N87-gastric and Calu3-lung) is assessed with selected compounds by the same methodology. The results are also shown in Table 1 below as the IC50 values in nM.

The subject of a further test is N87 cells. The experiment in a line: Cell proliferation assay, N87 gastric tumour cell line. It is filed as cell-based, human. As to conditions: Homo sapiens, 96 h; 4 days, methylene blue staining; read-out: Cell Proliferation N87 IC50. As to the method: as §2
The subject of another test is HB4a erbB-2 cells. The experiment in a line: Cell proliferation assay, HB4a transformed by over-expression of c-erbB-2. It is filed as cell-based, human. As to conditions: Homo sapiens, HB4a, 96 h; 4 days, methylene blue staining; read-out: Cell Proliferation HB4a erbB-2 IC50. Here is the method:
as §2

A further test has as its system HB4a ras cells. In words: Cell proliferation assay, HB4a transfected with ras (general toxicity comparison). It is filed as cell-based, human. As to conditions: Homo sapiens, HB4a, 96 h; 4 days, methylene blue staining; read-out: Cell Proliferation HB4a ras IC50. Here is the method: as §2
A further test concerns BT474 cells. The experiment in a line: Cell proliferation assay, BT474 breast tumour cell line. The test is classed as cell-based, human. As to conditions: Homo sapiens, BT-474, 96 h; 4 days, methylene blue staining; read-out: Cell Proliferation BT474 IC50. As to the method: as §2
The next test has as its system Calu3 cells. The experiment in a line: Cell proliferation assay, Calu3 lung tumour cell line. As to conditions: Homo sapiens, Calu-3, 96 h; 4 days, methylene blue staining; read-out: Cell Proliferation Calu3 IC50. The test is classed as cell-based, human. As to the method: as §2
The target in test [3] is T3, c-erbB-2 (baculovirus expressed recombinant intracellular domain) (Homo sapiens, UniProt P04626).
T3 construct: baculovirus expressed, recombinant constructs of the intracellular domains of c-erbB-2 and c-erbB-4 that are constitutively active; made in house
The experiment in a line: Substrate phosphorylation assay, c-erbB-2. It is filed as biochemical. As to conditions: ATP and peptide at Km, 30 min, room temperature. As to the method:
as §1

T3 sequence (P04626 676-1255 limits assumed): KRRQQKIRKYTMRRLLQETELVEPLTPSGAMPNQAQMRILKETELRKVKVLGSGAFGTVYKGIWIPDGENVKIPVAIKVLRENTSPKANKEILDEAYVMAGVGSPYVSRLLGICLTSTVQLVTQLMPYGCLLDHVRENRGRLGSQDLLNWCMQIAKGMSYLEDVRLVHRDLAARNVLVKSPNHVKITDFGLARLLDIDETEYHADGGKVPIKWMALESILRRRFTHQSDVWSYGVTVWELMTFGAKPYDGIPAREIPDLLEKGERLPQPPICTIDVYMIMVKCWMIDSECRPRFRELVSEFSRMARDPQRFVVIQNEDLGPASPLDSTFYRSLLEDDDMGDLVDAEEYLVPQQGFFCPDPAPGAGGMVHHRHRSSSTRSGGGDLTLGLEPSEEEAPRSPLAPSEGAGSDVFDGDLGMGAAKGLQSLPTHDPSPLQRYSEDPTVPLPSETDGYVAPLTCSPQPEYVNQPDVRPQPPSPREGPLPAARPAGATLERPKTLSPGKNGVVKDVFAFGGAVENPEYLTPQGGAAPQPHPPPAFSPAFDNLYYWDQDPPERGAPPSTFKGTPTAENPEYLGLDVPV
T1 sequence (Q15303 676-1308 limits assumed): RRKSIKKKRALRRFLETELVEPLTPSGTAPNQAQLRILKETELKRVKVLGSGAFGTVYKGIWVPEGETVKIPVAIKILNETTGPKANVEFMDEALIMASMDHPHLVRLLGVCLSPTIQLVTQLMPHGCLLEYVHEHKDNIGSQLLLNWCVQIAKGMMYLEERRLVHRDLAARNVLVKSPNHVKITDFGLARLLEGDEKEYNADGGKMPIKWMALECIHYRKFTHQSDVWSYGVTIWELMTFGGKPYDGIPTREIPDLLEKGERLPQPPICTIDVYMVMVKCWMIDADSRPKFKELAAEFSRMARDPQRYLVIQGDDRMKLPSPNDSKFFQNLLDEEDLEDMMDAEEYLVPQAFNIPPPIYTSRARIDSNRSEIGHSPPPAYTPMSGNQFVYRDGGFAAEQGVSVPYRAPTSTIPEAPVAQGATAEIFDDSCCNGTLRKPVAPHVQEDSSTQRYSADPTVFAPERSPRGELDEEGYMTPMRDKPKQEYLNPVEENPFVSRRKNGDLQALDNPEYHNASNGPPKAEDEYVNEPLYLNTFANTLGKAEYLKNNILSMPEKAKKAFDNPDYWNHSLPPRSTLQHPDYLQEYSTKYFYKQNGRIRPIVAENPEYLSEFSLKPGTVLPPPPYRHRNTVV
T2 sequence (P00533 25-1210): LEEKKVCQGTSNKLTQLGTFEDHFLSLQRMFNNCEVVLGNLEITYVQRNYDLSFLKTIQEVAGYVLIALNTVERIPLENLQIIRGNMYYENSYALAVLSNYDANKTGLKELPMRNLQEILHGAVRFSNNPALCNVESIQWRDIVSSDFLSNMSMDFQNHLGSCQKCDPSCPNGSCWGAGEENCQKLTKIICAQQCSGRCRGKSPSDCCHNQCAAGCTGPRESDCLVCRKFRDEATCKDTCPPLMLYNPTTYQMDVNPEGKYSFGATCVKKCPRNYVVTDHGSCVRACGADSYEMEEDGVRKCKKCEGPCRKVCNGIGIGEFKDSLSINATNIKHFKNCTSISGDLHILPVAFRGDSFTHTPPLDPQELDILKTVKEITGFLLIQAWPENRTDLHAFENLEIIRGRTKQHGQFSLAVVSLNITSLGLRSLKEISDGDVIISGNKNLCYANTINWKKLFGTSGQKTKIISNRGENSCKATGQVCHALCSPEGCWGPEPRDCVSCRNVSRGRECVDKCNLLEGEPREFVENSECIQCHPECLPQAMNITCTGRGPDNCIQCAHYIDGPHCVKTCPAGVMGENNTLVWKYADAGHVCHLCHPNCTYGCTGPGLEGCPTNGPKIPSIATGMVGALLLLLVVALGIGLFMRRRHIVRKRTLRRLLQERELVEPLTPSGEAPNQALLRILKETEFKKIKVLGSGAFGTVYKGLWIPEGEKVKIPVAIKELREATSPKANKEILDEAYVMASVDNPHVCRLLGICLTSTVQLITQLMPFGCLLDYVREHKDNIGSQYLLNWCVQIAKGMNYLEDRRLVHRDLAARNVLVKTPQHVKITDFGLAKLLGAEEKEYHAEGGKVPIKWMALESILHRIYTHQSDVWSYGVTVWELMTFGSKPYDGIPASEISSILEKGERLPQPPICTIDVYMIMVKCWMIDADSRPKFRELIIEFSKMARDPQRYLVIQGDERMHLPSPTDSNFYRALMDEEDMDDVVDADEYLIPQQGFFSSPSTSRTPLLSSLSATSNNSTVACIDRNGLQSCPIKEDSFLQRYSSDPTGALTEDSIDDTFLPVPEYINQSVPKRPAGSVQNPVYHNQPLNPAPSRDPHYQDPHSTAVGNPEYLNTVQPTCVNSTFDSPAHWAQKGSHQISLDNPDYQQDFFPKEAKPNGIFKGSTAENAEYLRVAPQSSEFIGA

As to `CNc1cc2c(Nc3ccc4c(cnn4Cc4ccccc4)c3)ncnc2cn1` [Example 37, N4-(1-Benzyl-1H-indazol-5-yl)-N6-methyl-pyrido[3,4-d]pyrimidine-4,6diamine], the IC50 is 180 nM in [1]; 30 nM in test [2]; 2000 nM with HN5 cells; 2200 nM with N87 cells; 520 nM in the test with HB4a erbB-2 cells; 17000 nM in the test with HB4a ras cells. Moreover, the IC50 in the test on BT474 cells is 1100 nM; in the test on Calu3 cells, 3700 nM; in [3] it was 65 nM.
